Source: patent US20260327264A1, “PEPTIDE INHIBITORS OF INTERLEUKIN-23 RECEPTOR” (Zealand Pharma A/S, priority 2023, published 2026)
Entries after “also recorded” stand apart in the source; their conditions may differ. Read-outs that look alike come from different tables or passages of the source. *1 amine or outer side, *2 acyl side, *3 side chain or, on linkers, in order; H or OH if unused. Where a SMILES comes first, the peptide text is derived from it. Bridges are numbered along the chain shown (N, C = ends). [ ]: non-standard residue; d: D form. 2Nal = N[C@@H](Cc1ccc2ccccc2c1)C(=O)O; AEF = NCCOc1ccc(C[C@H](N)C(=O)O)cc1; X1 = O=C(Cc1ccc(CN[*:1])cc1)[*:2]; 3Pal = N[C@@H](Cc1cccnc1)C(=O)O; Cit = NC(=O)NCCC[C@H](N)C(=O)O; αMeL = CC(C)C[C@](C)(N)C(=O)O; Dab = NCC[C@H](N)C(=O)O

How the values were obtained:
[1] = tested on: IL-23 mediated STAT3 signalling (DB cells); test: Functional inhibition of IL-23 mediated STAT3 signalling (phospho-STAT3 Tyr705) in DB cells; assay type: cell-based, human; details: for hIL-23 (pSTAT3) antagonist % inhibition: Table 3-2, maximal inhibitory response, EC80 of hIL-23
Method in brief: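 Phospho-STAT3 in lysed DB cells quantified by MSD kit after 90 min exposure to EC80 human IL-23, following 15 min compound pretreatment (37° C, 5% CO2). IC50 and maximal inhibition derived from curves normalized between IL-23-only and buffer-only controls.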

[2] = Peptide stability in simulated intestinal fluid (SIF); assay type: in vitro ADME; details: for remaining at 1 h, 10 µM / remaining at 4 h, 10 µM: pig
Description: (§1) SGF and SIF were prepared based on the United States Pharmacopeia specifications (Test Solutions, United States Pharmacopeia 35, NF 30, 2012). SGF was prepared by dissolving sodium chloride (0.2 g) in 50 mL of water. A volume of 0.7 mL of 10 M HCl was added to adjust the pH of the solution to 1.2 and the volume made up to 100 mL with water. 64 mg porcine pepsin (P7125, Sigma Aldrich) was gently dissolved into 20 mL preheated (37° C.) solution (3.2 g/L) immediately prior to the incubation. SIF was prepared by dissolving monobasic potassium phosphate (0.68 g) in 50 mL of water and adjusting the pH to 6.8 with 1 M NaOH. The volume was subsequently made up to 100 mL with water. 200 mg porcine pancreatin (P1625, Sigma Aldrich) was gently dissolved into 20 mL preheated (37° C.) solution (10 g/L) immediately prior to the incubation.
(§2) To initiate the incubations, 20 μL of peptide stock solution in 50% v/v isopropanol was deposited at the bottom of a well plate and 580 μL matrix solution was added to give a final substrate concentration of 10 μM. The incubation was performed at 37° C. with gentle shaking. 70 μL aliquots were removed at 0, 1 and 4 hours and quenched into 210 μL ice-cold precipitant solution (95% v/v acetonitrile with 0.1% v/v formic acid). After the last timepoint, the sampling plate was mixed for 10 min on a shaking table and centrifuged 10 min at 2200 g. 70 μL resulting supernatant was diluted with 150 μL water, mixed and centrifugated before analysis by liquid chromatography high resolution mass spectrometry. The zero sample was reinjected after the 4-hour sample to confirm that no drift in instrument sensitivity had occurred during the run. Percent remaining at each timepoint was calculated relative to timepoint zero based on absolute peak areas.
(§3) Compounds with a SIF stability (after 4 h) above 70% are considered highly SIF stable. Compounds with a SIF stability (after 4 h) between 30-70% (including 30% and 70%) are considered moderately SIF stable. Compounds with a SIF stability (after 4 h) below 30% are considered SIF unstable. SIF stability values above 100% are due to assay uncertainty and indicate the compound has not degraded.

[3] = Peptide stability in simulated gastric fluid (SGF); assay type: in vitro ADME; details: pig, pH 1.2, pepsin, 37° C.
Description: as §1, §2
as §3, with “SGF” for “SIF”

human IL-23R = target: T1, human IL-23R (Homo sapiens, UniProt Q5VWK5); test: Binding assay: displacement of fluorophore (TAMRA)-labelled reference compound from human IL-23R (BRET, Nluc-IL23R fusion protein membranes); details: for potency of the compound (in words): potency against IL-23R; for Emax: read-out: % displacement (hIL-23R binding)
T1 construct: Nanoluc luciferase (Nluc); secretion signal encoded by the plasmid (not specified); expressed in transfected cells; crude membranes used in the assay
T1 sequence (Q5VWK5 22-629): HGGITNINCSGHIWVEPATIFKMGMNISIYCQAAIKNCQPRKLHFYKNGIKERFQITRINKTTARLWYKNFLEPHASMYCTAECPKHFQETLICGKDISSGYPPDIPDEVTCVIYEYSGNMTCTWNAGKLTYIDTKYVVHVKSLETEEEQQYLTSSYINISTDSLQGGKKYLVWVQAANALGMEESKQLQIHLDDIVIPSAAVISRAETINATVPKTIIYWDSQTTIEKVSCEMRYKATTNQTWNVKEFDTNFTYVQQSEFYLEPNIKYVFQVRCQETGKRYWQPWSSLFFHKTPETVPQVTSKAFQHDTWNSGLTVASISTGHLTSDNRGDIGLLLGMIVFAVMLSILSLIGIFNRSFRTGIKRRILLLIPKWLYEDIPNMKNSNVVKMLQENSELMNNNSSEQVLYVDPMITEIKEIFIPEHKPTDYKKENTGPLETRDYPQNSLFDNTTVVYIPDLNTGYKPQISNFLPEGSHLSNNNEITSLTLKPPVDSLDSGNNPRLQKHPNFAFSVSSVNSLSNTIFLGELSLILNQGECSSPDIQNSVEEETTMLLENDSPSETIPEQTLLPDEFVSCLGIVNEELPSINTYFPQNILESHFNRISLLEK
Description: The assay principle relies on Bioluminescence Resonance Energy Transfer (BRET) between a fluorophore-labelled reference compound binding to the IL-23R part of a fusion protein consisting of the IL-23R fused to a Nanoluc luciferase enzyme (Nanoluc). The Nanoluc is placed in the N-terminus in close proximity to the binding domain of the ligand. Upon close proximity between the fluorophore of the fluorophore-labelled compound and the Nanoluc of the fusion protein, bioluminescence energy generated from conversion of a Nanoluc substrate, is transferred to the fluorophore resulting in an increase in BRET. In presence of an unlabelled compound, the unlabelled compound displaces the fluorophore-labelled peptide from its binding site resulting in a decrease in BRET. The concentration for which half of the fluorophore-labelled peptide is displaced by the unlabelled compound depends on the affinity of the compound for the IL-23R, and is termed the IC50 concentration.
The plasmid also contained a gene to confer resistance for the antibiotic hygromycin. A cell line stably expressing the Nluc-IL23R fusion protein was generated by transfection of HEK293 cells with the expression plasmid and selected with hygromycin for 3 weeks in Growth medium consisting of DMEM w/Glutamax-I containing, 10% V/V FBS, 1% V/V P/S, 1 mM Sodium Pyruvate, and 1× NEAA, and 0.3 mg/mL hygromycin. The remaining cells were propagated and considered a stable expressing Nluc-IL23R fusion protein pool clone.
Cells expressing the Nluc-IL23R fusion protein were expanded in Growth medium and membranes prepared by homogenization of a cell pellet from 18 T175 flasks (4° C. in subsequent steps). The cell pellet was lysed Tris 10 mM, 7.5, 1 mM EDTA and protease inhibitors (Complete, Roche) and homogenized using a 15 mL glass-dounce by 50 strokes. The homogenate was spun at spin @1500 rpm for 10 min, the supernatant transferred to SV-34 tubes and spun at 40000 g for 20 min at 4° C. to pellet the crude membranes. The supernatant was then removed, the pellet resuspended in 5 mL buffer containing 50 mM HEPES pH 7.4, 5 mM EGTA, and 5 mM MgCl2, and homogenized. Aliquots of the resuspended and homogenized membranes containing the Nluc-IL23R fusion protein were stored at −80° C. until use.
The plate was sealed with light impermeable plate seals, and incubated on an orbital shaker 400 rpm for 2 hours at room temperature. To determine the BRET ratio, the plate seal was removed and 25 μL of the Nanoluc substrate (Promega N1572) diluted 1:500 was added to each well and incubated for 1-2 minutes on an orbital shaker at 400 rpm. […] The BRET ratio was calculated as the fluorescence from the TAMRA/nanoluc bioluminescence.
Compound potency (IC50) and maximal displacement (% displacement) were estimated by computer-aided curve fitting using a 4-parameter logistic (4PL) non-linear model. The IC50 and maximal for each compound was determined by computer-aided curve fitting using a 4-parameter logistic (4PL) non-linear model.

[4] = EC80 of hIL-23, read-out: IC50 (pSTAT3)
[5] = Table 3-2, EC80 of hIL-23, read-out: hIL-23 (pSTAT3) antagonist IC50
[6] = simulated intestinal fluid, SIF, pH 6.8, pancreatin, 37° C.
[7] = simulated intestinal fluid, SIF, pH 6.8, pancreatin, 37° C., read-out: SIF (% remaining 4 h)

| Compound | IC50 [1, 4] [nM] | IC50 [1, 5] [nM] | hIL-23 (pSTAT3) antagonist % inhibition [1] [%] | remaining at 1 h, 10 µM [2, 6] [%] | remaining at 4 h, 10 µM [3] [%] | potency of the compound (in words) (human IL-23R) | remaining at 4 h, 10 µM ([2]; 37 °C, simulated intestinal fluid pH 6.8 with porcine pancreatin, read-out: SIF (% after 4 h), intact peptide remaining) [%] | SIF stability (in words) ([2]; simulated intestinal fluid) | remaining at 4 h, 10 µM [2, 7] [%] | remaining at 1 h, 10 µM [3] [%] | Emax (human IL-23R) [%] | major metabolite formed after incubation in the SIF assay ([2]; simulated intestinal fluid) | IC50 (human IL-23R) [nM] |
| --- | --- | --- | --- | --- | --- | --- | --- | --- | --- | --- | --- | --- | --- |
| CC(C)C[C@]1(C)NC(=O)[C@H](Cc2ccc3ccccc3c2)NC(=O)[C@H](Cc2ccc(OCCN)cc2)NC(=O)[C@@H]2CCNC(=O)CC[C@H](NC(=O)[C@H](CO)NC(=O)Cc3ccc(cc3)CNC(=O)CC[C@@H](C(=O)N[C@@H](CCN)C(=O)N[C@H](Cc3cccnc3)C(N)=O)NC1=O)C(=O)N[C@@H](Cc1c[nH]c3ccccc13)C(=O)N[C@@H](CCC(N)=O)C(=O)N2 [Compound 5, [4-Aminomethyl-phenylacetyl](1c)*SE(2c)WQ[Dab](2c)[Y(2-aminoethoxy)][2-Nal][2-Me-Leu]E(1c)[Dab][{d}3-(3-Pyridyl)-Ala]-[NH2]] | 2.1 | 2.1 | 95 | 91 | 105 |  |  |  |  |  |  |  |  |
| CC(C)C[C@]1(C)NC(=O)[C@H](Cc2ccc3ccccc3c2)NC(=O)[C@H](Cc2ccc(OCCN)cc2)NC(=O)[C@@H]2CCNC(=O)CC[C@H](NC(=O)[C@H](CO)NC(=O)Cc3ccc(cc3)CNC(=O)CC[C@@H](C(=O)N[C@@H](CCN)C(=O)NCCc3cccnc3)NC1=O)C(=O)N[C@@H](Cc1c[nH]c3ccccc13)C(=O)N[C@@H](CCC(N)=O)C(=O)N2 [Compound 7, [4-Aminomethyl-phenylacetyl](1c)*SE(2c)WQ[Dab](2c)[Y(2-aminoethoxy)][2-Nal][2-Me-Leu]E(1c)[Dab]-[NH-(2-(pyridin-3-yl)ethyl)]] | 0.13 | 0.13 | 98 | 103 |  | more potent than Compound 6; also recorded: particularly potent | 130 | SIF stable |  |  |  |  |  |
| CNC(=O)[C@H](Cc1cccnc1)NC(=O)[C@H](CCN)NC(=O)[C@@H]1CCC(=O)NCc2ccc(cc2)CC(=O)N[C@@H](Cc2ccccc2)C(=O)N[C@H]2CCC(=O)NCC[C@H](NC(=O)[C@H](CCC(N)=O)NC(=O)[C@H](Cc3c[nH]c4ccccc34)NC2=O)C(=O)N[C@@H](Cc2ccc(OCCN)cc2)C(=O)N[C@@H](Cc2ccc3ccccc3c2)C(=O)N[C@@](C)(CC(C)C)C(=O)N1 [Compound 21, [4-Aminomethyl-phenylacetyl](1c)*FE(2c)WQ[Dab](2c)[Y(2-aminoethoxy)][2-Nal][2-Me-Leu]E(1c)[Dab][3-(3-Pyridyl)-Ala]-[NHMe]] ([X1]FEWQ[Dab][AEF][2Nal][αMeL]E[Dab][3Pal]-NHMe; lactam 3-6, N-10) |  | 0.063 | 102 |  | 101 |  |  |  | 57 | 101 |  |  |  |
| CC(C)C[C@]1(C)NC(=O)[C@H](Cc2ccc3ccccc3c2)NC(=O)[C@H](Cc2ccc(OCCN)cc2)NC(=O)[C@@H]2CCNC(=O)CC[C@H](NC(=O)[C@H](CO)NC(=O)Cc3ccc(cc3)CNC(=O)CC[C@@H](C(=O)N[C@@H](CCN)C(=O)N[C@@H](Cc3cccnc3)C(N)=O)NC1=O)C(=O)N[C@@H](Cc1c[nH]c3ccccc13)C(=O)N[C@@H](CCC(N)=O)C(=O)N2 [Ref 122, [4-Aminomethyl-phenylacetyl](1c)*SE(2c)WQ[Dab](2c)[Y(2-aminoethoxy)][2-Nal][2-Me-Leu]E(1c)[Dab][3-(3-Pyridyl)-Ala]-[NH2], reference compound] |  |  | 99 |  |  | potent |  | not stable |  |  | 97 | the peptide without the C-terminal 3Pal (3-(3-Pyridyl)-Ala) amino acid |  |
| CC(C)C[C@@H]1NC(=O)[C@H](Cc2c[nH]c3ccccc23)NC(=O)[C@H](Cc2c[nH]c3ccccc23)NC(=O)[C@@H]2CSCC(=O)CSC[C@H](NC(=O)[C@H](CO)NC(=O)[C@@H](NC(=O)[C@@H](N)CC(=O)O)CSCC(=O)CSC[C@@H](C(=O)N[C@@H](CCCNC(=N)N)C(N)=O)NC1=O)C(=O)N[C@@H](Cc1c[nH]c3ccccc13)C(=O)N[C@@H](CCC(N)=O)C(=O)N2 (single isomer, unassigned) [I3 (isomer 3), H-DC(1a)SC(2a)WQC(2a)WWLC(1a)R-[NH2], reference compound] |  |  |  | 0 | 0 |  |  |  | 0 | 5 |  |  |  |
| CNC(=O)[C@H](Cc1cccnc1)NC(=O)[C@H](CCC(N)=O)NC(=O)[C@@H]1CCC(=O)NCc2ccc(cc2)CC(=O)N[C@@H](CO)C(=O)N[C@H]2CCC(=O)NCC[C@H](NC(=O)[C@H](CCC(N)=O)NC(=O)[C@H](Cc3c[nH]c4ccccc34)NC2=O)C(=O)N[C@@H](Cc2ccc(OCCN)cc2)C(=O)N[C@@H](Cc2ccc3ccccc3c2)C(=O)N[C@@](C)(CC(C)C)C(=O)N1 [Compound 33, [4-Aminomethyl-phenylacetyl](1c)*SE(2c)WQ[Dab](2c)[Y(2-aminoethoxy)][2-Nal][2-Me-Leu]E(1c)Q[3-(3-Pyridyl)-Ala]-[NHMe]] ([X1]SEWQ[Dab][AEF][2Nal][αMeL]EQ[3Pal]-NHMe; lactam 3-6, N-10) |  |  |  | 92 |  |  |  |  |  | 98 |  |  |  |
| CNC(=O)[C@H](Cc1cccnc1)NC(=O)[C@H](CCN)NC(=O)[C@@H]1CCC(=O)NCc2ccc(cc2)CC(=O)N[C@@H](C)C(=O)N[C@H]2CCC(=O)NCC[C@H](NC(=O)[C@H](CCC(N)=O)NC(=O)[C@H](Cc3c[nH]c4ccccc34)NC2=O)C(=O)N[C@@H](Cc2ccc(OCCN)cc2)C(=O)N[C@@H](Cc2cnc3ccccc3c2)C(=O)NC(C)(C)C(=O)N1 [Compound 49, 4-aminomethyl-phenylacetyl](1c)*AE(2c)WQ[Dab](2c)[Y(2-aminoethoxy)][3-quinolinylalanine][Aib]E(1c)[Dab][3-(3-Pyridyl)-alanyl]-[NHMe]] |  | 0.093 | 100 | 93 |  |  |  |  | 89 |  | 89 |  | 0.023 |
| CNC(=O)[C@H](Cc1cccnc1)NC(=O)[C@H](CCN)NC(=O)[C@@H]1CCC(=O)NCc2ccc(cc2)CC(=O)N[C@@H](CO)C(=O)N[C@H]2CCC(=O)NCC[C@H](NC(=O)[C@H](CCCNC(N)=O)NC(=O)[C@H](Cc3c[nH]c4ccccc34)NC2=O)C(=O)N[C@@H](Cc2ccc(OCCN)cc2)C(=O)N[C@@H](Cc2ccc3ccccc3c2)C(=O)N[C@@](C)(CC(C)C)C(=O)N1 [Compound 26, [4-Aminomethyl-phenylacetyl](1c)*SE(2c)W[Cit][Dab](2c)[Y(2-aminoethoxy)][2-Nal][2-Me-Leu]E(1c)[Dab][3-(3-Pyridyl)-Ala]-[NHMe]] ([X1]SEW[Cit][Dab][AEF][2Nal][αMeL]E[Dab][3Pal]-NHMe; lactam 3-6, N-10) |  | 0.042 | 100 | 89 | 99 |  |  |  |  | 105 |  |  |  |
